Where a name gives a salt, the structure may show the parent alone. Read-outs that look alike come from different tables or passages of the source. Blank lines part the entries; values can stand above or below the compound they belong to. Peptide text beside a SMILES is read from it.
Key:
Format in all cases: biochemical
Granzyme B = Granzyme B (Homo sapiens, UniProt P10144); assay: Serine protease inhibition assay: Granzyme B; details: control compound, 10-dose 3-fold serial dilution starting at 10 μM or 100 uM
Granzyme B, sequence (P10144 21-247, species assumed): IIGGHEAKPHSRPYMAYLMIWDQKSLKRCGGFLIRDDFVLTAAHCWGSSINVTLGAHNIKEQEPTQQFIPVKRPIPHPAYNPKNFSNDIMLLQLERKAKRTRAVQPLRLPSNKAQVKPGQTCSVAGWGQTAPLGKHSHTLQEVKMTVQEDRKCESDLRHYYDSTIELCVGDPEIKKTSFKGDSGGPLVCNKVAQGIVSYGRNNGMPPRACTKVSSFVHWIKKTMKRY
Experimental: (§1) Control compounds were tested in a 10-dose assay with 3-fold serial dilution starting at 10 μM or 100 uM (tPA, Matriptase 2, Kallikrein 5, Kallikrein 2, Kallikrein 1, Granzyme B, and APC). The protease activities were monitored as a time-course measurement of the increase in fluorescence signal from a fluorescently-labeled peptide substrate, and the initial linear portion of the signal slope (signal/min) was analyzed. % Enzyme activity for antibody titrations were calculated respective to vehicle controls in presence of PBS buffer as 100% Activity.
(§2) Empty cells indicate no inhibition or compound activity that could not be fit to an IC50 curve. The IC50 value higher than 1 μM was estimated based on the best curve fitting available.

Cathepsin G = target: T1, Cathepsin G (Homo sapiens, UniProt P08311); assay: Serine protease inhibition assay: Cathepsin G; details: control compound, 10-dose 3-fold serial dilution starting at 10 μM or 100 uM
T1 sequence (P08311 21-244): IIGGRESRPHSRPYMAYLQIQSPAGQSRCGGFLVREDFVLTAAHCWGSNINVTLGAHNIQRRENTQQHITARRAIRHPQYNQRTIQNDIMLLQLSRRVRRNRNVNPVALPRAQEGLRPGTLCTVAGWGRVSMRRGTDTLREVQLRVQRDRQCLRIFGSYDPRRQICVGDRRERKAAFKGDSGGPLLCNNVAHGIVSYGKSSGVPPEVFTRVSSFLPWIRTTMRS
Experimental: as §1, §2

Factor XIIa = target: T2, Factor XIIa (Homo sapiens, UniProt P00748); assay: Serine protease inhibition assay: Factor XIIa; details: control compound, 10-dose 3-fold serial dilution starting at 10 μM or 100 uM
T2 sequence (P00748 373-615 limits assumed): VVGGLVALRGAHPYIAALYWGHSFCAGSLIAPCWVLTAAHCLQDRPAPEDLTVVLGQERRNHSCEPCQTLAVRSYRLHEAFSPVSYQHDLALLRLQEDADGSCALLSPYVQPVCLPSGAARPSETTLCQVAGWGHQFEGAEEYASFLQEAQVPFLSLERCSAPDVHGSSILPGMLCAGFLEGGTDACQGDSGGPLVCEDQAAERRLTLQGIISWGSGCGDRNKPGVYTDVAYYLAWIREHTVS
Experimental: as §1, §2

Factor VIIa = target: T3, Factor VIIa (Homo sapiens, UniProt P08709); assay: Serine protease inhibition assay: Factor VIIa; details: control compound, 10-dose 3-fold serial dilution starting at 10 μM or 100 uM
T3 sequence (P08709 213-466 limits assumed): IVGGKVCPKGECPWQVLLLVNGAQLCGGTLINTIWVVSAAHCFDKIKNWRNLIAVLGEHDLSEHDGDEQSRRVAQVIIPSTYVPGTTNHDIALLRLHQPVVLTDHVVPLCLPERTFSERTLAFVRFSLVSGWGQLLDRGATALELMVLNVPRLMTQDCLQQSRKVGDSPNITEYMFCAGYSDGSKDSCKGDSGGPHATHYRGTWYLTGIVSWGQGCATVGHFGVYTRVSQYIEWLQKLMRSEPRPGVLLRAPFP
T3 sequence (P08709 61-212 limits assumed): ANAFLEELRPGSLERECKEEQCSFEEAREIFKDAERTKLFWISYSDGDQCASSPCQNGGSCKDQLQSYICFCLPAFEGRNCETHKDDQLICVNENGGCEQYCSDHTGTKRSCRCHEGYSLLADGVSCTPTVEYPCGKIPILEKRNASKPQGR
Experimental: as §1, §2

Plasmin = Plasmin (Homo sapiens, UniProt P00747); assay: Serine protease inhibition assay: Plasmin; details: control compound, 10-dose 3-fold serial dilution starting at 10 μM or 100 uM
Plasmin, sequence (P00747 581-810 limits assumed, species assumed): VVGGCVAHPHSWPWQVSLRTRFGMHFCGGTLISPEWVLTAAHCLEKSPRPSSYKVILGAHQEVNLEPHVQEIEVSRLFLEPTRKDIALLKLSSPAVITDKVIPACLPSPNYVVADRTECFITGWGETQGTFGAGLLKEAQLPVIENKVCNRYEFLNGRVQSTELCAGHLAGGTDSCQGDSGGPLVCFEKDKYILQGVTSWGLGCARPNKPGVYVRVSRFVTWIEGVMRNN
Plasmin, sequence (P00747 97-580 limits assumed, species assumed): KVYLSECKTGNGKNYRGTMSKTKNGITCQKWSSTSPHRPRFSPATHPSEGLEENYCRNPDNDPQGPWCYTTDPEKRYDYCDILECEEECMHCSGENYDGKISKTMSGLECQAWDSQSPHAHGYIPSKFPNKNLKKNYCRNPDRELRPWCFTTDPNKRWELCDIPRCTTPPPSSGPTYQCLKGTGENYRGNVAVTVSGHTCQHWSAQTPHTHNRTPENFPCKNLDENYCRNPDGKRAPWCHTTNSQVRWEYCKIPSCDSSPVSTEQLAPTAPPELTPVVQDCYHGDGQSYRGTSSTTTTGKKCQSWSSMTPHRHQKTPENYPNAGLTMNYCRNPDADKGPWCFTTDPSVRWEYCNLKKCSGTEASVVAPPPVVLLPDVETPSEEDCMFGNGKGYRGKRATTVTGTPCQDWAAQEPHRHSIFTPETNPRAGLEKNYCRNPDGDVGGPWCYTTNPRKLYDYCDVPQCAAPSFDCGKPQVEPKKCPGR
Experimental: as §1, §2

Kallikrein 12 = target: T4, Kallikrein 12 (Homo sapiens, UniProt Q9UKR0); assay: Serine protease inhibition assay: Kallikrein 12; details: control compound, 10-dose 3-fold serial dilution starting at 10 μM or 100 uM
T4 sequence (Q9UKR0 18-248): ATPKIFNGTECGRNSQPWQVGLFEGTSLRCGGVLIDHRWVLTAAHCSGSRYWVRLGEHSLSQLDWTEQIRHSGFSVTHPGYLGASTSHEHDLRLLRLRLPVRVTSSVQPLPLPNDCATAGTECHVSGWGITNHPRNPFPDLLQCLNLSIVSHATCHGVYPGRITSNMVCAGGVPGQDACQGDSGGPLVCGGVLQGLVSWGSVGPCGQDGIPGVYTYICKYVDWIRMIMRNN
Experimental: as §1, §2

tPA = tPA (Homo sapiens, UniProt P00750); assay: Serine protease inhibition assay: tPA; details: control compound, 10-dose 3-fold serial dilution starting at 10 μM or 100 uM
tPA, sequence (P00750 36-562, species assumed): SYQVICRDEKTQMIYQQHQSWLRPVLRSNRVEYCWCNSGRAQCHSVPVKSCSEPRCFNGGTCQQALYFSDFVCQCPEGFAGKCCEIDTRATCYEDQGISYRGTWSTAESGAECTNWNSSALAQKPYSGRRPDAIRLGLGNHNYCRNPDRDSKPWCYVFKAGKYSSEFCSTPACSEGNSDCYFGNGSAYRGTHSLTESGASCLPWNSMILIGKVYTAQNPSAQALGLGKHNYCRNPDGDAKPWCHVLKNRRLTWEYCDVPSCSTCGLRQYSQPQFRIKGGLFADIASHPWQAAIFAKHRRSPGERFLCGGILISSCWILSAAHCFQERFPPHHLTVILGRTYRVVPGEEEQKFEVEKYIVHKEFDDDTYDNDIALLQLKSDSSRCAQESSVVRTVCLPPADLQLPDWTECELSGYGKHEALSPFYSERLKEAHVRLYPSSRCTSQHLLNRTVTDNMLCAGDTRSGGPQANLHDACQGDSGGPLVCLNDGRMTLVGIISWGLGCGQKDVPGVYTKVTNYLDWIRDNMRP
Experimental: as §1, §2

Kallikrein 5 = target: T5, Kallikrein 5 (Homo sapiens, UniProt Q9Y337); assay: Serine protease inhibition assay: Kallikrein 5; details: control compound, 10-dose 3-fold serial dilution starting at 10 μM or 100 uM
T5 sequence (Q9Y337 23-293): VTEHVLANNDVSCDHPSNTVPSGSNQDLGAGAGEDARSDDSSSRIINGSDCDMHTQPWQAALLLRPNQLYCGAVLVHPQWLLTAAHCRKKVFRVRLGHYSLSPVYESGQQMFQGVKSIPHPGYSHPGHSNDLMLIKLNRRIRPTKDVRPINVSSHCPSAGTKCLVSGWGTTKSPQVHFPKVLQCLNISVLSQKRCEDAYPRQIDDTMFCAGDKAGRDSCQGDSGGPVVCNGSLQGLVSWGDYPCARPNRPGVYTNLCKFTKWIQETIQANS
Experimental: as §1, §2

trypsin, human pancrease = assay: Trypsin inhibition assay; details: 0.25 nM trypsin, PFR-AMC, 2 hours
Experimental: Fluorescence intensity was measured every 5 minutes. Gabexate mesylate was used as a positive control, in a dilution series starting at 1 μM. The assay was performed in duplicate.

Kallikrein 2 = Kallikrein 2 (Homo sapiens, UniProt P20151); assay: Serine protease inhibition assay: Kallikrein 2; details: control compound, 10-dose 3-fold serial dilution starting at 10 μM or 100 uM
Kallikrein 2, sequence (P20151 25-261, species assumed): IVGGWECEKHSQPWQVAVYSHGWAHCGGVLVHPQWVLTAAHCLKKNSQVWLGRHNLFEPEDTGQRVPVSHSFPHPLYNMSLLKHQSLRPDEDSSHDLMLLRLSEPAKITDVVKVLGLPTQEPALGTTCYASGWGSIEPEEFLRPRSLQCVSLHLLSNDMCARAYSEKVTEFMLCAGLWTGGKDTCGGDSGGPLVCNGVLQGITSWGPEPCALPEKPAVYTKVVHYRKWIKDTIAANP
Experimental: as §1, §2

Matriptase 2 = target: T6, Matriptase 2 (Homo sapiens, UniProt Q8IU80); assay: Serine protease inhibition assay: Matriptase 2; details: control compound, 10-dose 3-fold serial dilution starting at 10 μM or 100 uM
T6 sequence (Q8IU80 1-811): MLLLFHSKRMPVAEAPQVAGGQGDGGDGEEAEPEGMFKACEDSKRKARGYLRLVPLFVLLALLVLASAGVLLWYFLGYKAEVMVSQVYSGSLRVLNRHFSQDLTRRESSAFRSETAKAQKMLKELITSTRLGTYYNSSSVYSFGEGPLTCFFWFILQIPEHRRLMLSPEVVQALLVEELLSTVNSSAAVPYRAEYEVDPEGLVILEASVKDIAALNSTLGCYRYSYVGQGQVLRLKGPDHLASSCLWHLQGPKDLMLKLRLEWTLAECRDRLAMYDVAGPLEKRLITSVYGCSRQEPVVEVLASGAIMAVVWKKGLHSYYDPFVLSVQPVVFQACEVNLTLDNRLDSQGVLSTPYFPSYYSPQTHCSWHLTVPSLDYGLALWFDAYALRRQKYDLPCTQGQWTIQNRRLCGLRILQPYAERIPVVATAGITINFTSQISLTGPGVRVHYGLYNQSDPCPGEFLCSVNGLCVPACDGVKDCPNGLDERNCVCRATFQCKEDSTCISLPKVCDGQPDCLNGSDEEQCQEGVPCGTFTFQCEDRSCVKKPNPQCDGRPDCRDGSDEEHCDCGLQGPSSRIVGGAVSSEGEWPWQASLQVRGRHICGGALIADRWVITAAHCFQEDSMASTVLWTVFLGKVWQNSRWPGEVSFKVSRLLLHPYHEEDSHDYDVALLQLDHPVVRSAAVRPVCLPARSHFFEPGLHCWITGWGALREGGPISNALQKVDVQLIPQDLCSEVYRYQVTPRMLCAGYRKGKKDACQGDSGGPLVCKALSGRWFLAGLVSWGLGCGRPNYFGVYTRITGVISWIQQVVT
Experimental: as §1, §2

Hepsin = Hepsin (Homo sapiens, UniProt P05981); assay: Serine protease inhibition assay: Hepsin; details: control compound, 10-dose 3-fold serial dilution starting at 10 μM or 100 uM
Hepsin, sequence (P05981 whole entry): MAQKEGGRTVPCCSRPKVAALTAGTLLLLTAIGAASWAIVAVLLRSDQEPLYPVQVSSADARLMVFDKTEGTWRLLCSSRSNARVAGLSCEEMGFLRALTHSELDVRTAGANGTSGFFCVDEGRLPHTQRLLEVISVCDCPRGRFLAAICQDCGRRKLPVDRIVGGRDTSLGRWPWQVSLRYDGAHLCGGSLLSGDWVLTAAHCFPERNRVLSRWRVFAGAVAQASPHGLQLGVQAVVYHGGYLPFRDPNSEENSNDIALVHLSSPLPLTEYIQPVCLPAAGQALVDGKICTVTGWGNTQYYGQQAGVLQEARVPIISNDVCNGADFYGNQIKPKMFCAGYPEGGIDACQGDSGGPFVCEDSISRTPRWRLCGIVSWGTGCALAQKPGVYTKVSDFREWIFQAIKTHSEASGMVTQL
Experimental: as §1, §2

Urokinase = Urokinase (Homo sapiens, UniProt P00749); assay: Serine protease inhibition assay: Urokinase; details: control compound, 10-dose 3-fold serial dilution starting at 10 μM or 100 uM
Experimental: as §1, §2

Thrombin a = Thrombin a (Homo sapiens, UniProt P00734); assay: Serine protease inhibition assay: Thrombin a; details: control compound, 10-dose 3-fold serial dilution starting at 10 μM or 100 uM
Experimental: as §1, §2

Activated Protein C = Activated Protein C (Homo sapiens, UniProt P04070); assay: Serine protease inhibition assay: Activated Protein C; details: control compound, 10-dose 3-fold serial dilution starting at 10 μM or 100 uM
Activated Protein C, sequence (P04070 212-461 limits assumed): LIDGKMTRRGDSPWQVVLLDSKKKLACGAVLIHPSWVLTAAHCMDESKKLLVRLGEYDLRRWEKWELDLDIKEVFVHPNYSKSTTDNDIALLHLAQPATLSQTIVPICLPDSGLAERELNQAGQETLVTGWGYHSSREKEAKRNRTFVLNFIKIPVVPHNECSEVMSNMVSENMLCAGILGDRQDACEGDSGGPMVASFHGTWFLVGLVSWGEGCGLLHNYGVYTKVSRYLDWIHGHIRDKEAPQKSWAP
Activated Protein C, sequence (P04070 43-197 limits assumed): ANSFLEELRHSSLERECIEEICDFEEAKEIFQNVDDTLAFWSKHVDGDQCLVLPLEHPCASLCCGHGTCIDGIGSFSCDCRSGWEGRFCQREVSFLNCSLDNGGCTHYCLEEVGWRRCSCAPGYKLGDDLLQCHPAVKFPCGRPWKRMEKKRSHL
Experimental: as §1, §2

Kallikrein 1 = Kallikrein 1 (Homo sapiens, UniProt P06870); assay: Serine protease inhibition assay: Kallikrein 1; details: control compound, 10-dose 3-fold serial dilution starting at 10 μM or 100 uM
Kallikrein 1, sequence (P06870 25-262, species assumed): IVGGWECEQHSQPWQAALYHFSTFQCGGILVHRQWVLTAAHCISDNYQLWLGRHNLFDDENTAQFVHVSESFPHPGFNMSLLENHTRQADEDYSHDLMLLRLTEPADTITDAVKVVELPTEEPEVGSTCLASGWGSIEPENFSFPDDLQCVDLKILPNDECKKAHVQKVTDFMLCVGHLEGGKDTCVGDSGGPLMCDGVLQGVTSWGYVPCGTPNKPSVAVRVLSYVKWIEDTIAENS
Experimental: as §1, §2

Compound: CC(C)C[C@H](NC(=O)[C@@H](NC(=O)N[C@@H](Cc1ccccc1)C(=O)O)[C@@H]1CCN=C(N)N1)C(=O)N[C@H](C=O)Cc1ccccc1 [Chymostatin]
IC50 (Cathepsin G): 4090 nM

Compound: N=C(N)c1ccc2nc(-c3cc(CC(=O)N[C@@H](CC(=O)O)C(=O)O)cc(-c4cc(S(N)(=O)=O)ccc4O)c3O)[nH]c2c1 [PCI 27483]
IC50 (Factor VIIa): 141 nM

Compound: Gabexate mesylate [Gabexate mesylate (GM)]
IC50 (Plasmin): 253 nM | IC50 (Kallikrein 12): 32.5 nM | IC50 (tPA): 1060 nM | IC50 (Kallikrein 5): 8730 nM | IC50 (trypsin, human pancrease; read-out: Compound IC50 (M) Data 1): 2.13e-09 M | IC50 (trypsin, human pancrease; read-out: Compound IC50 (M) Data 2): 2.33e-09 M | IC50 (Kallikrein 2): 139 nM | IC50 (Matriptase 2): 201 nM | IC50 (Hepsin): 51 nM | IC50 (Urokinase): 16.5 nM | IC50 (Thrombin a): 837 nM | IC50 (Activated Protein C): 64.8 nM

Compound: CC(=O)N[C@@H](CC(C)C)C(=O)N[C@@H](CC(C)C)C(=O)N[C@H](C=O)CCCNC(=N)N [Leupeptin]
IC50 (Kallikrein 1): 2990 nM

Now from value to compound:

IC50 (Granzyme B): 178 nM
Compound: CC[C@H](C)[C@H](NC(C)=O)C(=O)N[C@@H](CCC(=O)O)C(=O)N[C@H](C(=O)N[C@H](C=O)CC(=O)O)[C@@H](C)O [IETD-CHO] (Ac-IETD-aldehyde; N-terminus assumed)

IC50 (Factor XIIa): 23.2 nM
Compound: N=C(N)c1ccc2cc(OC(=O)c3ccc(N=C(N)N)cc3)ccc2c1 [Nafamostat mesylate]
